Results published in article PMC7998705, “Dose-Dependent Solubility–Permeability Interplay for Poorly Soluble Drugs under Non-Sink Conditions” (Pharmaceutics, 2021).
≈ marks a conversion by molar mass, not a printed value. Each block holds one molecule with its values, some of them ahead of it.

Experiments:
[1] = pH 6.5
Experimental: (§1) The concentration–time profiles were determined via manual sampling from the donor chambers and acceptor chambers during flux measurements. At 0, 30, 60, 120, 240, and 360 min, 100 μL of the acceptor chamber solution was withdrawn and diluted to 100 μL (2× dilution) of 3:2 DMA:ethylene glycol (v/v). At the same time point, 400 μL of the donor chamber solution was withdrawn and filtered through a polytetrafluoroethylene (PTFE) membrane filter of 0.22 μm pose size. Then, 100 μL of the filtered solution was diluted to 100 μL (2× dilution) of 3:2 DMA:ethylene glycol (v/v). The sample concentration was determined by ultra-high-performance liquid chromatography (UHPLC).
(§2) The sample concentrations were measured on a Waters (Milford, MA) Acquity UPLC H-Class system. An Acquity UPLC® BEH Shield RP18 1.7 μm, 2.1 × 50 mm, was used for chromatographic separation. A gradient mobile phase, spanning 95:5 to 0:100 (v/v) water:MeCN (both containing 0.05%TFA) over 2.0 min, was pumped at a flow rate of 1.0 mL/min.

[2] = Flux measurements by MicroFlux; conditions: for Papp: not told, sink conditions, average ± SD (n = 3); for Flux in pH 6.5 buffer + 0.05% SLS compared with pH 6.5 buffer: sink conditions (5 μg/mL griseofulvin, 100 μg/mL triamcinolone)
Experimental: as §1
From the obtained concentration–time profiles in the acceptor chambers, the flux (J) was calculated. The flux refers to the mass transfer through the membrane, and it is defined as the total amount of material crossing one unit area of the membrane per unit time, as described by Equation (11):(11) J (t)=1/A·dm/dt= V/A·dC(t)/dt where dm/dt (μg/mL) is the total amount of material crossing the membrane per unit time, A is the area of the membrane (1.54 cm^2), V is the volume of the acceptor chamber (20 mL), and dC(t)/dt (μg/(mL⋅min)) is the slope of the concentration–time profiles in the acceptor chambers. Time intervals were selected in each test to exclude the lag time of the concentration–time profile and calculate the initial flux. […] Based on Fick’s first law, assuming the sink condition in the acceptor chambers, the flux can be described by Equation (12):(12) J (t)=PappCD(t) where Papp is the apparent permeability of drugs and CD (t) is the drug concentration in the donor chambers.
The sample concentrations were measured on a Waters (Milford, MA) Acquity UPLC H-Class system. An Acquity UPLC® BEH Shield RP18 1.7 μm, 2.1 × 50 mm, was used for chromatographic separation. A gradient mobile phase, spanning 95:5 to 0:100 (v/v) water:MeCN (both containing 0.05%TFA) over 2.0 min, was pumped at a flow rate of 1.0 mL/min. […] The injection volume and ultraviolet (UV) wavelength for triamcinolone were 1 μL and 292 nm, respectively.

[3] = 37 °C; cited from earlier work
[4] = set-up: method as in PMID 20006692; conditions: 500 mg dose; cited from earlier work
[5] = Theoretical calculation about permeability; conditions: for Apparent permeability and flux reduced to (fraction): calculated, sink conditions, donor 5 μg/mL; for Papp: not told; for Calculated Pm (app): Equation (3); for Calculated Daq (app): Equation (5), hUWL (app) = 100 μm; for Calculated Pm (U): pH 6.5 buffer
Experimental: Based on Fick’s first law, flux in the drug permeation can be expressed as shown in Equation (1): [36, 43]
As described in the introduction, overall permeation can be divided into membrane permeation and UWL permeation.
Pm (app) is calculated using the fraction of UFDs (FU) as shown in Equation (3):(3) Pm (app)= FUPm (U) where Pm (U) is the intrinsic permeability of UFDs.
PUWL (app) can be expressed using the apparent aqueous diffusivity (Daq (app)) from Fick’s first law as shown in Equation (5): (5) PUWL (app)= Daq (app)/hUWL (app) where hUWL (app) is the apparent thickness of the UWL. When there are no solubilizer additives in the drug formulation or test media in the permeability measurements, Equation (5) can be described as shown in Equation (6):(6) PUWL (U)= Daq (U)/hUWL (U) where hUWL (U) is the intrinsic thickness of the UWL and Daq (U) is the intrinsic aqueous diffusivity of UFDs. The thickness of the UWL can be determined based on rotation speed in the flux experiment. If the rotation speed is constant, we can assume that the thickness of the UWL is constant, independent of the addition of solubilizer additives, as shown in Equation (7):(7) hUWL (app)= hUWL (U)
Substituting hUWL (app) of Equation (5) and hUWL (U) of Equation (6) for Equation (7), PUWL (app) is described as shown in Equation (8):(8) PUWL (app)= PUWL (U)×Daq (app)/Daq (U)
The apparent aqueous diffusivity (Daq (app)) is a combined total of each fraction of aqueous diffusivity as shown in Equation (9):(9) Daq (app)= FUDaq (U) + (1−FU)Daq (B) where FU is the same fraction of UFDs as in Equation (4) and Daq (B) is the aqueous diffusivity of drug molecules bound to solubilizer additives. PUWL (app) can be calculated by Equations (6), (8), and (9) as shown in Equation (10):(10) PUWL (app)= 1/hUWL (app) {FUDaq(U) + (1−FU)Daq (B)}
Using the MW of the model compounds, each Daq (U) was calculated (calculated Daq (U) in Table 4). The UWL thickness (hUWL (app) or hUWL (U)) for the MicroFlux^TM measurements in this study was estimated to be around 100 μm based on previous studies. The intrinsic UWL permeability of UFDs (PUWL (U)) was then calculated by Equation (6) (calculated PUWL (U) in Table 4).
The apparent membrane permeability (Pm (app)) was calculated by Equation (3) using the fraction of UFDs (FU) in Table 3 and Pm (U) (calculated Pm (app) in Table 5). […] The apparent aqueous diffusivity (Daq (app)) was calculated by Equation (5) using PUWL (app) and hUWL (app) = 100 μm (calculated Daq (app) in Table 5). Substituting FU, Daq (app), and Daq (U) in Equation (9), the aqueous diffusivity of drug molecules bound to SLS (Daq (B)) was calculated (calculated Daq (B) in Table 5). As for triamcinolone, Daq (B) was not calculated in this study. […] As the aggregated number of SLS in aqueous solutions was reported to be 62, their micellar weight appeared to be around 18,000 Da. […] Assuming this micellar size is constant, permeability and flux could be calculated by Equation (10) and Equation (12) using the apparent solubility.
When pH 6.5 buffer is in the donor chamber, the apparent UWL thickness is expressed using Equations (2) and (6) as shown in Equation (14):(14) hUWL (app)=Daq (U)(1/Papp−1/Pm (U))

physchem = conditions: 37 °C, thermodynamic from solid
Experimental: as §1, §2

[6] = set-up: method as in PMID 17724660, PMID 8668668, PMID 1808607; conditions: partitioning between octanol and water; cited from earlier work
[7] = pH 6.5, Measured Papp (U), pH 6.5 buffer
[8] = pH 6.5, Measured Papp, pH 6.5 buffer + 0.05% SLS
[9] = pH 6.5, pH 6.5 buffer + 0.05% SLS, read-out: Calculated Papp (converted)
[10] = pH 6.5, pH 6.5 buffer, read-out: Calculated Papp (U) (converted)

Compound: COC1=CC(=O)C[C@@H](C)[C@]12Oc1c(Cl)c(OC)cc(OC)c1C2=O [Griseofulvin]
- Solubility change by the addition of 0.05% SLS [1]: about 2.5 fold
- UFD Amount [1]: 10.75 µg/mL
- Sample concentration in the donor chamber ([2]; 50, 200 and 1000 μg/mL doses (non-sink), pH 6.5 buffer): about 10 μg/mL
- Sample concentration in the donor chamber ([2]; 50, 200 and 1000 μg/mL doses (non-sink), pH 6.5 buffer + 0.05% SLS): about 25 μg/mL
- Apparent permeability in pH 6.5 buffer + 0.05% SLS compared with pH 6.5 buffer ([2]; based on Equation (12)): almost half
- Increase of total permeated amount when the dose amount exceeded solubility ([2]; donor concentration almost constant): 20–30%
- Flux increase depending on the dose amount ([2]; non-sink conditions, both pH 6.5 buffer and pH 6.5 buffer + 0.05% SLS): 10–30%
- Papp [2, 7]: 247 ×10⁻⁶ cm/s
- Papp [2, 8]: 108 ×10⁻⁶ cm/s
- Flux in pH 6.5 buffer + 0.05% SLS compared with pH 6.5 buffer [2]: almost half
- Aqueous solubility [3]: 29.9 [40, 41] μg/mL
- Increase of in vivo permeability and in vivo drug absorption by solid drugs in the UWL [4]: about twofold
- Apparent permeability and flux reduced to (fraction) ([5]; apparent solubility increased by 5 times): about 1/4
- Apparent permeability and flux reduced to (fraction) ([5]; apparent solubility increased by 10 times): 1/7
- Calculated Daq (B) ([5]; drug molecules bound to SLS, Equation (9)): 8.37 × 10^−7 cm^2/s
- Papp [5, 9]: 108 ×10⁻⁶ cm/s
- Papp [5, 10]: 247 ×10⁻⁶ cm/s
- Calculated PUWL (app) ([5]; pH 6.5 buffer + 0.05% SLS, Equation (2)): 255 ×10⁻⁶ cm/s
- Calculated Pm (app) ([5]; pH 6.5 buffer + 0.05% SLS): 187 ×10⁻⁶ cm/s
- Calculated Daq (app) ([5]; pH 6.5 buffer + 0.05% SLS): 2.56 × 10^−6 cm^2/s
- Calculated Pm (U) ([5]; Equation (2)): 473 ×10⁻⁶ cm/s
- solubility (physchem; pH 6.5, aqueous buffer): 10.8 ± 0.38 µg/mL (≈ 30.5 µM)
- solubility (physchem; pH 6.5, aqueous with cosolvent or surfactant or cyclodextrin): 27.4 ± 0.07 µg/mL (≈ 77.7 µM)

- Sample concentration in the donor chamber ([2]; 500, 2000 and 10,000 μg/mL doses (non-sink), pH 6.5 buffer and pH 6.5 buffer + 0.05% SLS): about 200 μg/mL
- Papp [2, 7]: 5.07 ×10⁻⁶ cm/s
- Papp [2, 8]: 4.38 ×10⁻⁶ cm/s
- Flux and donor concentration at the 10,000 μg/mL dose, higher than at 500 and 2000 μg/mL doses ([2]; pH 6.5 buffer + 0.05% SLS, non-sink conditions): about 10%
- Flux in pH 6.5 buffer + 0.05% SLS compared with pH 6.5 buffer [2]: almost similar values
- Papp [5, 9]: 4.38 ×10⁻⁶ cm/s
- Papp [5, 10]: 5.07 ×10⁻⁶ cm/s
- Calculated Pm (app) ([5]; pH 6.5 buffer + 0.05% SLS): 5 ×10⁻⁶ cm/s
- Calculated Daq (app) ([5]; pH 6.5 buffer + 0.05% SLS): 3.54 × 10^−7 cm^2/s
- Calculated Pm (U) ([5]; Equation (2)): 5.12 ×10⁻⁶ cm/s
- Calculated Pm (U) ([5]; Equation (2), listed as triamcinolone): around 0.0003 cm/min
Compound: C[C@]12C=CC(=O)C=C1CC[C@H]1[C@@H]3C[C@@H](O)[C@](O)(C(=O)CO)[C@@]3(C)C[C@H](O)[C@@]12F [Triamcinolone]
- Log P [6]: 1.03 [40, 42]
